Reference: PubChem BioAssay (NCI)
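Here, GI50 denotes the concentration required for 50% inhibition of growth. Definition used: TGI = concentration required for complete inhibition of growth.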

How the values were obtained:
Assay in all cases: DTP human tumour cell line panel, 384-well format
SK-MEL-5 melanoma = system: SK-MEL-5 melanoma
A549 NSCLC = system: A549 NSCLC
ACHN renal = system: ACHN renal
NCI-H23 lung = system: NCI-H23 lung
MCF7 breast = system: MCF7 breast
T-47D breast = system: T-47D breast
SNB-19 CNS = system: SNB-19 CNS
PC-3 prostate = system: PC-3 prostate
OVCAR-4 ovarian = system: OVCAR-4 ovarian
KM12 colon = system: KM12 colon
U251 glioblastoma = system: U251 glioblastoma
A498 renal = system: A498 renal
IGROV1 ovarian = system: IGROV1 ovarian
BT-549 breast = system: BT-549 breast
SF-268 CNS = system: SF-268 CNS
786-0 renal = system: 786-0 renal
HOP-62 NSCLC = system: HOP-62 NSCLC
HS 578T breast = system: HS 578T breast
MDA-MB-435 melanoma = system: MDA-MB-435 melanoma
DU-145 prostate = system: DU-145 prostate
SK-OV-3 ovarian = system: SK-OV-3 ovarian
UO-31 renal = system: UO-31 renal
RPMI-8226 leukemia = system: RPMI-8226 leukemia
SF-295 CNS = system: SF-295 CNS
MOLT-4 leukemia = system: MOLT-4 leukemia
NCI-H460 NSCLC = system: NCI-H460 NSCLC
M14 melanoma = system: M14 melanoma
SK-MEL-28 melanoma = system: SK-MEL-28 melanoma
SR leukemia = system: SR leukemia
TK-10 renal = system: TK-10 renal
MDA-MB-468 breast = system: MDA-MB-468 breast
CCRF-CEM leukemia = system: CCRF-CEM leukemia
K-562 leukemia = system: K-562 leukemia
OVCAR-8 ovarian = system: OVCAR-8 ovarian
HOP-92 NSCLC = system: HOP-92 NSCLC
HCT-15 colon = system: HCT-15 colon
EKVX NSCLC = system: EKVX NSCLC
RXF 393 renal = system: RXF 393 renal
CAKI-1 renal = system: CAKI-1 renal
HL-60(TB) leukemia = system: HL-60(TB) leukemia
OVCAR-3 ovarian = system: OVCAR-3 ovarian
SNB-75 CNS = system: SNB-75 CNS
OVCAR-5 ovarian = system: OVCAR-5 ovarian
COLO 205 colon = system: COLO 205 colon
NCI/ADR-RES ovarian = system: NCI/ADR-RES ovarian
SW-620 colon = system: SW-620 colon
HT29 colon = system: HT29 colon
HCT-116 colon = system: HCT-116 colon
SF-539 CNS = system: SF-539 CNS
NCI-H522 lung = system: NCI-H522 lung
SN12C renal = system: SN12C renal
NCI-H226 lung = system: NCI-H226 lung
MDA-MB-231 breast = system: MDA-MB-231 breast
HCC-2998 colon = system: HCC-2998 colon
NCI-H322M lung = system: NCI-H322M lung
MALME-3M melanoma = system: MALME-3M melanoma
UACC-257 melanoma = system: UACC-257 melanoma

## CS(=O)c1ccc(-c2nc(-c3ccc(F)cc3)c(-c3ccncc3)[nH]2)cc1 (centres undefined)
SK-MEL-5 melanoma
  GI50: 14.7 µM
  TGI: 28.4 µM
A549 NSCLC
  GI50: 38.9 µM
  TGI: > 100 µM
ACHN renal
  GI50: 19 µM
  TGI: 65.1 µM
NCI-H23 lung
  GI50: 26.7 µM
  TGI: 52.6 µM
MCF7 breast
  GI50: 26.8 µM
  TGI: 90.7 µM
T-47D breast
  GI50: 27.4 µM
  TGI: 83.9 µM
SNB-19 CNS
  GI50: 56.8 µM
  TGI: > 100 µM
PC-3 prostate
  GI50: 40.3 µM
  TGI: > 100 µM
OVCAR-4 ovarian
  GI50: 38.2 µM
  TGI: 93.8 µM
KM12 colon
  GI50: 27.4 µM
  TGI: 62.3 µM
U251 glioblastoma
  GI50: 27.8 µM
  TGI: 62.4 µM
A498 renal
  GI50: 16.7 µM
  TGI: 55.2 µM
IGROV1 ovarian
  GI50: 13.9 µM
  TGI: 28.9 µM
BT-549 breast
  GI50: 41.7 µM
  TGI: > 100 µM
SF-268 CNS
  GI50: 43.4 µM
  TGI: > 100 µM
786-0 renal
  GI50: 17.8 µM
  TGI: 36.5 µM
HOP-62 NSCLC
  GI50: 23 µM
  TGI: 50.1 µM
HS 578T breast
  GI50: 20.7 µM
  TGI: 39 µM
MDA-MB-435 melanoma
  GI50: 33.2 µM
  TGI: > 100 µM
DU-145 prostate
  GI50: 30.4 µM
  TGI: 93.2 µM
SK-OV-3 ovarian
  GI50: 22.7 µM
  TGI: 58.2 µM
UO-31 renal
  GI50: 21.4 µM
  TGI: 69.9 µM
RPMI-8226 leukemia
  GI50: 23.6 µM
  TGI: 40.3 µM
SF-295 CNS
  GI50: 20.1 µM
  TGI: 35.1 µM
MOLT-4 leukemia
  GI50: 25.1 µM
  TGI: 62.2 µM
NCI-H460 NSCLC
  GI50: 27.8 µM
  TGI: 64.1 µM
M14 melanoma
  GI50: 6.96 µM
  TGI: 29.4 µM
SK-MEL-28 melanoma
  GI50: 12.1 µM
  TGI: 25.6 µM
SR leukemia
  GI50: 13.1 µM
  TGI: 26.4 µM
TK-10 renal
  GI50: 16.8 µM
  TGI: 37.4 µM
MDA-MB-468 breast
  GI50: 10.5 µM
  TGI: 29.2 µM
CCRF-CEM leukemia
  GI50: 17.7 µM
  TGI: 42.8 µM
K-562 leukemia
  GI50: 27.8 µM
  TGI: > 100 µM
OVCAR-8 ovarian
  GI50: 24 µM
  TGI: 90.4 µM
HOP-92 NSCLC
  GI50: 34.8 µM
  TGI: > 100 µM
HCT-15 colon
  GI50: 18.4 µM
  TGI: 37.1 µM
EKVX NSCLC
  GI50: 32.6 µM
  TGI: > 100 µM
RXF 393 renal
  GI50: 17.8 µM
  TGI: 33.5 µM
CAKI-1 renal
  GI50: 22.2 µM
  TGI: 88.4 µM
HL-60(TB) leukemia
  GI50: 16.4 µM
  TGI: 30.3 µM
OVCAR-3 ovarian
  GI50: 29.3 µM
  TGI: 68.8 µM
SNB-75 CNS
  GI50: 44.2 µM
  TGI: > 100 µM
OVCAR-5 ovarian
  GI50: 40.4 µM
  TGI: > 100 µM
COLO 205 colon
  GI50: 11.8 µM
  TGI: 24.5 µM
NCI/ADR-RES ovarian
  GI50: 98.1 µM
  TGI: > 100 µM
SW-620 colon
  GI50: 31.5 µM
  TGI: 49.2 µM
HT29 colon
  GI50: 11.1 µM
  TGI: 24 µM
HCT-116 colon
  GI50: 23.3 µM
  TGI: 50.9 µM
SF-539 CNS
  GI50: 29.5 µM
  TGI: 71.6 µM
NCI-H522 lung
  GI50: 14.8 µM
  TGI: 35.2 µM
SN12C renal
  GI50: 48.5 µM
  TGI: > 100 µM
NCI-H226 lung
  GI50: 19.9 µM
  TGI: 34.4 µM
MDA-MB-231 breast
  GI50: 35.6 µM
  TGI: > 100 µM
HCC-2998 colon
  GI50: 23.2 µM
  TGI: 38.7 µM
NCI-H322M lung
  GI50: 37.5 µM
  TGI: 96.2 µM
MALME-3M melanoma
  GI50: 11.9 µM
  TGI: 28.1 µM
UACC-257 melanoma
  GI50: 15.3 µM
  TGI: 30 µM
